Test results taken from PubChem BioAssay AID463206 (Broad Institute, 2010).
Calls of active or inactive are those of the source.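 How the source made its calls: active means caspase luminescence falls with dose and the half-maximal concentration AC50 from the fitted curve is at or below a set limit; inconclusive means flat fit at 30 to 70% signal loss, or invalid fit; inactive means AC50 above the limit, or signal rises instead.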

test system: INS-1E cytokine-induced caspase-3/7, Caspase-Glo luminescence, 48 h; assay: inhibitors of cytokine-induced caspase-3/7 activity, dose response, orthogonal assay for beta-cell apoptosis protection project, INS-1E rat cells, luminescence (AID 463206)

SMILES	AC50
CCOc1cc(C)c(S(=O)(=O)Nc2ccc3cn[nH]c3c2)cc1C	> 12 µM (inactive)
O=C(c1cc(COc2ccc3ncccc3c2)on1)N1CCCCCC1	> 26 µM (inactive)
O=C(N/N=C\c1cc(Br)ccc1O)c1ccc(S(=O)(=O)N2CCCCC2)cc1	> 26 µM (inactive)
FC(F)(F)c1ccccc1NC(=S)N1CCc2ccccc2C1	> 26 µM (inactive)
Cc1oc(/N=C/c2ccccc2)c(C#N)c1C	> 26 µM (inactive)
O=C(/C=C/c1ccc(F)cc1)NC(=S)NNC(=O)c1cnccn1	> 26 µM (inactive)
CC(=O)NC(c1ccccc1)c1cc(Cl)c2cccnc2c1O (configuration not stated)	> 26 µM (inactive)
NC1=NC[C@H](Cc2ccccc2)N1CCCCC1CCCCC1	> 26 µM (inactive)
Cc1cccc(C2(c3cccc(C)c3)OC(=O)c3ccccc32)c1	> 26 µM (inactive)
CC(=O)NC(C)c1cc(Cl)c2cccnc2c1O (configuration not stated)	> 26 µM (inactive)
CCOc1cc(CNCCc2ccc(S(N)(=O)=O)cc2)ccc1OCc1ccc(Cl)cc1	> 26 µM (inactive)
O=C(N/N=C/c1ccccc1)c1c(O)c2ccccc2[nH]c1=O	> 26 µM (inactive)
COc1ccc(S(=O)(=O)Nc2cc(SCC(=O)O)c(O)c3ccccc23)cc1	> 26 µM (inactive)
CC(C)(C)c1ccc(OCc2ccc(C(=O)N/N=C/c3ccc(O)c(O)c3)cc2)cc1	> 26 µM (inactive)
Cc1ccccc1NC(=O)/C=C/c1ccc([N+](=O)[O-])s1	> 26 µM (inactive)
COc1ccc(OC)c2sc(N(CCCN(C)C)C(=O)c3ccc(S(=O)(=O)N4CCc5ccccc5C4)cc3)nc12	> 26 µM (inactive)
O=C(Nc1ccc(Cl)c(Cl)c1)Nc1nnc(CC2=CCCCC2)s1	> 26 µM (inactive)
Cc1ccc(CSC(Nc2ccc(F)cc2)=C(C#N)C#N)cc1	> 26 µM (inactive)
CC1=NN(c2nc3ccccc3[nH]2)C(=O)C1Cc1ccccc1 (configuration not stated)	> 26 µM (inactive)
CC(C)[C@H]1C(=O)O[C@H](C(C)C)C(=O)N(C)[C@@H](C(C)C)C(=O)O[C@H](C(C)C)C(=O)N(C)[C@@H](C(C)C)C(=O)O[C@H](C(C)C)C(=O)N1C	> 26 µM (inactive)
[O-][n+]1onc2c1CCc1c-2nn(-c2ccccc2Cl)[n+]1[O-]	15.9 µM
COc1cc(C(=O)NC(=S)NNC(=O)c2cnccn2)cc(OC)c1OC	> 26 µM (inactive)
CCCCCCCCn1c(=O)c(C(=O)OC)c(N)c2ccccc21	> 26 µM (inactive)
O=c1c(Cl)c(Cl)cnn1Cc1ccc(F)cc1	> 26 µM (inactive)

SMILES	AC50
Cc1ccc(C)c(S(=O)(=O)N2CCN(Cc3ccc(O)c4ncccc34)CC2)c1	> 26 µM (inactive)
CCOc1ccc(/C=N/NC(=O)c2[nH]ncc2Br)c(O)c1	> 26 µM (inactive)
COc1cc(Cl)c(NC2=CC(=O)C(=O)c3ccccc32)c(OC)c1	> 26 µM (inactive)
O=c1cc(CSc2ccc(Cl)cc2)nc(-c2ccccn2)[nH]1	> 26 µM (inactive)
COc1ccc(CNCCC(c2ccc(OC(C)C)cc2)c2ccccc2OC)cc1 (configuration not stated)	> 26 µM (inactive)
C/C(=N\NC(=O)c1cc(C2CC2)nc2ccccc12)c1ccc(O)cc1O	> 26 µM (inactive)
COc1ccc(Nc2nc(N3CCCC3)c3ccccc3n2)cc1	17.1 µM
O=C(Cc1ccc(Cl)cc1)c1c[nH]c(C(=O)NCc2cccnc2)c1	> 26 µM (inactive)
C/C(=N\NC(=O)Cc1ccc(Cl)cc1)c1ccccn1	> 26 µM (inactive)
CCC1(OC(=O)CN)C(=O)OCc2c1cc1n(c2=O)Cc2cc3ccccc3nc2-1 (configuration not stated)	0.33 µM
CCCCCCCCCCCCn1ccc(=N)cc1	> 26 µM (inactive)
CC(=O)Nc1ccc(NC(=O)CN(c2cccc([N+](=O)[O-])c2)S(C)(=O)=O)cc1	> 26 µM (inactive)
Cc1ccc(C2=CC(c3ccc(N(C)C)cc3)n3nnnc3N2)cc1 (configuration not stated)	> 26 µM (inactive)
CCN1CCN(Cc2ccc(NC(=O)c3cc(NC(=O)c4cncc(-c5ccc(C#N)cc5)c4)cc(OC)c3)cc2C(F)(F)F)CC1	> 26 µM (inactive)
C#CCOCCOCCOCCNc1nc(N2CCN(C(=O)CCCCCCCCCCNC(=O)[C@@H](CCSC)n3cc(CCO)nn3)CC2)nc(N2CCN(C(=O)CCCCCCCCCCNC(=O)[C@H]([C@@H](C)CC)n3cc(CCCCCN)nn3)CC2)n1	> 26 µM (inactive)
CC(=O)c1c(C)[nH]c(C(=O)OCC(=O)Nc2ccc(Cl)cc2[N+](=O)[O-])c1C	> 26 µM (inactive)
CCOc1ccc(C(=O)c2cc([N+](=O)[O-])ccc2N2CCOCC2)cc1	0.83 µM
CCOC(=O)c1c(C)[nH]c(C(=O)OCC(=O)NC(C)(C)C)c1C	> 26 µM (inactive)
N/C(=N\OC(=O)c1cccc(Cn2cc(C(F)(F)F)ccc2=O)c1)c1ccccc1	> 26 µM (inactive)
COc1ccc(C(=O)N/N=C/c2cc(Br)ccc2O)cc1OC	> 26 µM (inactive)
COC(=O)c1ccccc1NC(=O)c1nc(S(=O)(=O)Cc2ccccc2)ncc1Cl	> 26 µM (inactive)
COc1nnc(-c2ccc(N3CCCCC3)c(NC(=O)C3CCCCC3)c2)c2ccccc12	> 26 µM (inactive)
Cn1ncc2c(N3CCN(c4ccc(Cl)c(Cl)c4)CC3)ncnc21	> 26 µM (inactive)
